# Data taken from paper PMC8402032, “Unsymmetric Cisplatin-Based Pt(IV) Conjugates Containing a PARP-1 Inhibitor Pharmacophore Tested on Malignant Pleural Mesothelioma Cell Lines” (Molecules, 2021).
# Where two headings read alike, the source gives them in different places.
# Experiments:
# [1] = test system: MSTO-211H (biphasic phenotype) malignant pleural mesothelioma cells; assay: Cell viability assay (Trypan blue dye exclusion), MSTO-211H; format: cell-based, human
# Procedure: (§1) Complexes 6–9 were tested on a panel of human MPM cell lines together with CDDP and SAA1, added for comparison (Table 1). The half-maximal inhibitory concentration, IC50, was determined on MSTO-211H (biphasic phenotype), REN (epithelioid), BR95 (epithelioid), and MM98 (sarcomatoid) cancer cell lines to identify the most promising Pt(IV) conjugate to be further investigated. To determine the number of viable cells, the use of the dye exclusion assay was preferred to the colorimetric assay because of the heterogeneity in the energy metabolism between the different MPM cell lines. This may justify minor differences with respect to the previously published IC50 for CDDP [40].
# (§2) Cells were seeded at a density of 10 × 10^4 cells per well in 6-well plates in RPMI medium supplemented with 10% fetal bovine serum (FBS), 100 μg mL^−1 streptomycin, and 10 μg mL^−1 penicillin and incubated overnight at 37 °C in a humidified environment containing 5% CO2 to allow adherence. Cisplatin was dissolved in 0.9% w/v aqueous NaCl brought to pH = 3 with HCl (final stock concentration 1 mM). The Pt(IV) complexes were dissolved in DMSO (final stock concentration 5 mM); the resulting solutions were microfiltered (0.45 μm) and their Pt content was checked by ICP-MS (see Section 3.5.2). These mother solutions were diluted in complete medium to the required concentration range.
# (§3) Following 72 h of treatment with the diluent of the compound (Ctrl) or different doses of the Pt compounds, cells were trypsinized and stained with Trypan blue. The number of cells considered viable (unstained cells) was counted in a Bürker haemocytometer within 5 min after staining.
# PARP-1 = target: T1, PARP-1 (Homo sapiens, UniProt P09874); assay: Western blot of poly(ADP-ribose) (PAR) and PARP-1 in MSTO-211H cells; format: cell-based; settings: 5 µM, 72 h
# T1 construct: endogenous in cells; host or cells: MSTO-211H cells
# T1 sequence (P09874 whole entry): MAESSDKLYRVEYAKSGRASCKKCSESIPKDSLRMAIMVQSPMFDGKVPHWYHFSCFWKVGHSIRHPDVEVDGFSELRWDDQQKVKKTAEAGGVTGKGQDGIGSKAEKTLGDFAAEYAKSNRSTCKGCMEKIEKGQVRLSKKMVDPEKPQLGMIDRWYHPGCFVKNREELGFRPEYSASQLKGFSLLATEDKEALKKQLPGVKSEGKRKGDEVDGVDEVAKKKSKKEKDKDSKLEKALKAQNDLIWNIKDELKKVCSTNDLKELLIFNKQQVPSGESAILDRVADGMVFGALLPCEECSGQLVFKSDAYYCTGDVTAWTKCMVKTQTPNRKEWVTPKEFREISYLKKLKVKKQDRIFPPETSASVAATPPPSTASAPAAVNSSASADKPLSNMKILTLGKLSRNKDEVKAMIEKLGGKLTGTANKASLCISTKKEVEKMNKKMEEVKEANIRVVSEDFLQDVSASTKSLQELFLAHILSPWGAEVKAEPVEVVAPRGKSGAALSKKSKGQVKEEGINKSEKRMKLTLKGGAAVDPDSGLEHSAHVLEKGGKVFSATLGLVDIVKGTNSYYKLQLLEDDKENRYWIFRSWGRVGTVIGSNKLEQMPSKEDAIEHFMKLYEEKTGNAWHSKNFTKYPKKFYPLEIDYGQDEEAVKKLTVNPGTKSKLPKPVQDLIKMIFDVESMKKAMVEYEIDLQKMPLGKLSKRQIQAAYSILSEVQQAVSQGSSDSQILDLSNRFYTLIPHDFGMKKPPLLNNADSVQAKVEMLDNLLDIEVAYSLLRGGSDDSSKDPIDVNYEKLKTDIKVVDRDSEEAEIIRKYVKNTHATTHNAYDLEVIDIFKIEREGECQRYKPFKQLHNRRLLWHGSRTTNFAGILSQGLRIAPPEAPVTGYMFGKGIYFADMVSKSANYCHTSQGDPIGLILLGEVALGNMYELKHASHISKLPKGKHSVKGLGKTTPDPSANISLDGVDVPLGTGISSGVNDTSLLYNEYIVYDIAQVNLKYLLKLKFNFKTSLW
# Procedure: The effect of the most promising complex 6 on PARP-1 activity was further evaluated. MSTO-211H cells were treated with equimolar concentrations (5 µM) of 6, CDDP, and 3-ABA for 72 h. The two last compounds were used either alone or in combination in a 1:1 molar ratio. Western blot analysis evaluated the expression of poly(ADP-ribose) (PAR), which is the product of PARP-1 activity (Figure 4A).
# For protein analysis, cells were extracted with 1% NP-40 lysis buffer (50 mM Tris-HCl pH 8.5 containing 1% NP-40, 150 mM NaCl, 10 mM EDTA, 10 mM NaF, 10 mM Na4P2O7, and 0.4 mM Na3VO4) with freshly added protease inhibitors (10 μg mL^−1 leupeptin, 4 μg mL^−1 pepstatin, and 0.1 U mL^−1 aprotinin). Lysates were centrifuged at 13,000× g for 10 min at 4 °C and the supernatants were collected and assayed for protein concentration with the Bradford assay method (Bio-Rad). Proteins were separated by SDS-PAGE (sodium dodecyl sulfate polyacrylamide gel electrophoresis) under reducing conditions. Following SDS-PAGE, proteins were transferred to nitrocellulose, reacted with specific antibodies, and then detected with peroxidase-conjugate secondary antibodies and chemioluminescent ECL reagent. Digital images were taken with the Bio-Rad ChemiDocTM Touch Imaging System and quantified using Bio-Rad Image Lab 5.2.1.
# Figure 4 (A) Representative Western blot showing poly(ADP-ribose) (PAR) and PARP-1 expression following 72 h MSTO-211H cell treatment with diluent (Ctrl) or 5 µM concentrations of cisplatin (CDDP), 6, CDDP + 3-ABA combination (1:1 ratio), and 3-ABA alone. HSC70 protein was used as loading control. (B) Immunocytochemistry was used to capture representative γH2AX focus images following 72 h MSTO-211H cell treatment with diluent (Ctrl) or 5 µM of complex 6.
# [2] = test system: BR95 (epithelioid) malignant pleural mesothelioma cells; assay: Cell viability assay (Trypan blue dye exclusion), BR95; format: cell-based, human; settings: 72 h treatment; for IC50: mean ± sd
# Procedure: as §1, §2, §3
# [3] = test system: REN (epithelioid) malignant pleural mesothelioma cells; assay: Cell viability assay (Trypan blue dye exclusion), REN; format: cell-based, human; settings: 72 h treatment; for IC50: mean ± sd
# Procedure: as §1, §2, §3
# [4] = Reduction with ascorbic acid followed by RP-HPLC; format: physicochemical; settings: ascorbic acid 10 mM, HEPES 50 mM pH 7.4, 37 °C, cosolvent DMF or MeOH
# Procedure: To verify the activation by reduction mechanism, complexes 6–9 were challenged with the model bioreductant ascorbic acid (AA, 10 mM in water) in HEPES buffer (HEPES = 4-(2-hydroxyethyl)-1-piperazineethanesulfonic acid, 50 mM, pH = 7.4) at 37 °C. The reaction was monitored by following the RP-HPLC peaks over 24 h. The different solubility and retention times required different experimental conditions for the different compounds (cosolvent DMF or MeOH was necessary to maintain the Pt compounds in solution, >5% v/v). For these reasons, complete reduction for 8 and 9 was observed after 8 h, whereas for 6 and 7, the >85% peak area disappeared after 24 h only. […] Complexes 6–9, having very similar coordination skeletons, can be expected to behave in the same way.
# The reduction of complexes with ascorbic acid was followed by monitoring of the reduction of the area of their chromatographic peaks via RP-HPLC over 24 h at 37 °C. The Pt compounds were dissolved in methanol or DMF (up to 20 mM) and diluted with different quantities of 50 mM 4-(2-hydroxyethyl)piperazine-1-ethanesulfonic acid (HEPES) buffer (pH = […]) containing 10 mM ascorbic acid. The mixtures were microfiltered to eliminate the precipitated complex. The chromatographic conditions were similar to those for the determination of lipophilicity (see Section 3.4), with different percentages of methanol depending on the complex.
# [5] = test system: MM98 (sarcomatoid) malignant pleural mesothelioma cells; assay: Cell viability assay (Trypan blue dye exclusion), MM98; format: cell-based, human; settings: 72 h treatment; for IC50: mean ± sd
# Procedure: as §1, §2, §3
# MSTO-211H cells = assay: Cell uptake (intracellular Pt by ICP-MS); format: cell-based, human; settings: 10 μM, 4 h treatment, mean ± sd
# Procedure: Cellular accumulation of compounds 6–9 was evaluated by means of the intracellular Pt uptake after 4 h treatment of MSTO-211H cells and expressed as ng Pt per 10^6 cells (Table 1). As expected, the Fmoc protection of 6 and 7 enhances the lipophilicity of the complexes, facilitating their cell uptake. Also the elongation of the organic linker from -(CH2)2- to -(CH2)6- increases (to a minor extent) the lipophilicity in 7 and 9 with respect to 6 and 8.
# MSTO-211H cells were seeded in […] Petri dishes and challenged with the compounds and mixtures under investigations (10 μM) in complete medium. At the end of the exposure, cells were washed three times with phosphate buffered saline (PBS) and detached from the Petri dishes using 0.05% Trypsin 1X + 2% EDTA (HyClone, Thermo Fisher). The cells were harvested in fresh complete medium and an automatic cell counting device (Countess®, Life Technologies, Carlsbad, CA, USA) was used to measure the number and the mean diameter from every cell count. The harvested cells were transferred into a borosilicate glass tube and centrifuged at 1100× g rpm for 5 min at room temperature. The supernatant was carefully removed by aspiration, but about 200 μL of the supernatant was left in order to limit the cellular loss. Finally, the cellular pellets were stored at −80 °C. Platinum content determination was performed by ICP-MS (Thermo Optek X Series 2). Complete mineralization was obtained by the addition of 70% w/w HNO3 to each sample (after defrosting), followed by incubation for 1 h at 60 °C in an ultrasonic bath. Before the ICP-MS measurement, the HNO3 was diluted to a final 1% concentration. The instrumental settings were optimized to yield maximum sensitivity for platinum, and the most abundant isotopes of Pt (m/z = 195) and In (m/z = 115, used as internal standard) were quantified. The level of Pt found in cells after the treatment was normalized to the cell number and expressed as ng of Pt per 10^6 cells.
# [6] = Lipophilicity by RP-HPLC (log k′); format: physicochemical; settings: RP-HPLC C18, 15 mM formic acid/CH3OH 30/70
# Description: Since it has been reported that Pt(IV) complexes enter cells by passive diffusion only, with a few exceptions, the evaluation of lipophilicity is key because it is related to the ability of a molecule to passively cross cellular membranes. RP-HPLC techniques are often used to measure the lipophilicity of a compound, since the retention is due to partitioning between the C18 chains of the stationary phase (representing the cellular membrane) and the aqueous eluent (representing the water inside and outside cells). For this purpose, the retention times (tR) of the complexes were transformed as log k′, where k′ = (tR − t0)/t0) and t0 is the column dead-time (Table 1).
# RP-HPLC was used to evaluate the capacity factors of the compounds as reported elsewhere. Briefly, a chromatogram for each Pt complex (0.5 mM) was run on a C18 column Phenosphere-NEXT (5-μm, 250 × 4.6 mm ID) with an eluant composition of 15 mM formic acid/CH3OH 30/70 and a flow rate of 0.5 mL min^−1. The corresponding retention time tR was used to calculate log k′, where k′ = (tR − t0)/t0. The dead time of the column t0 was the tR of KCl, added as unretained internal reference.
# [7] = 72 h treatment, mean ± sd, read-out: IC50 MSTO-211H
Structure (SMILES),"IC50 ([1]; Homo sapiens, MSTO-211H, read-out: IC50 on MSTO-211H) [µM]",PARP-1 parylation (PAR expression) (PARP-1),"ratio IC50 (cisplatin)/IC50 (Pt(IV) complex), BR95 [2]",IC50 [2] [µM],"ratio IC50 (cisplatin)/IC50 (Pt(IV) complex), REN [3]",IC50 [3] [µM],time to complete reduction [4] [h],"ratio IC50 (cisplatin)/IC50 (Pt(IV) complex), MM98 [5]",IC50 [5] [µM],Pt Uptake (MSTO-211H cells) [ng Pt per 10^6 Cells],"ratio IC50 (cisplatin)/IC50 (Pt(IV) complex), MSTO-211H ([1]; 72 h treatment)","IC50 [1, 7] [µM]",Log k′ [6],peak area disappeared after 24 h ([4]; 24 h) [%],PARP-1 cleavage (PARP-1)
"NC(=O)c1cccc(N)c1 [Compound 3-ABA, 3-aminobenzamide, reference compound]",5412 ± 28,No self-parylation of PARP-1,–,–,–,–,–,–,–,–,–,–,–,–,–
"CC(=O)[O][Pt]([NH2])([NH2])([Cl])([Cl])[O]C(=O)CCNC(=O)c1cccc(N)c1 [Compound 8, (OC-6-44)-Acetato[3-(3-aminobenzamido)-propanoato]-diammine-dichlorido-platinum(IV)]",–,–,0.038,56.8 ± 4.3,0.065,46.9 ± 3.2,8,0.030,58.4 ± 2.7,2.50 ± 1.16,0.039,28.9 ± 2.9,0.25,–,–
"CC(=O)[O][Pt]([NH2])([NH2])([Cl])([Cl])[O]C(=O)CCCCCCNC(=O)c1cccc(NC(=O)OCC2c3ccccc3-c3ccccc32)c1 [Compound 7, (OC-6-44)-Acetato-[7-(3-(fmoc-amino)-benzamido)-heptanoato]-diammine-dichlorido-platinum(IV)]",–,–,0.98,2.19 ± 0.13,1.4,2.22 ± 0.08,–,3.9,0.45 ± 0.08,10.86 ± 1.17,0.77,1.48 ± 0.02,5.84,> 85,–
"N.N.[Cl][Pt][Cl] [Cisplatin, CDDP, (SP-4-2)-diamminedichloridoplatinum(II), reference compound]",–,increase in PARP-1 parylation,–,2.15 ± 0.29,–,3.07 ± 0.43,–,–,1.75 ± 0.09,9.23 ± 0.96,–,1.14 ± 0.07,–,–,did not induce PARP-1 cleavage
"CC(=O)[O][Pt]([NH2])([NH2])([Cl])([Cl])[O]C(=O)CCCCCCNC(=O)c1cccc(N)c1 [Compound 9, (OC-6-44)-Acetato-[7-(3-aminobenzamido)-heptanoato]-diammine-dichlorido-platinum(IV)]",–,–,0.054,39.7 ± 2.7,0.079,38.9 ± 2.2,8,–,44.1 ± 3.5,3.12 ± 0.78,0.021,54.9 ± 3.1,0.34,–,–
